From the NIST ThermoML archive (doi:10.1021/je200721d)
Numbers after ± are expanded uncertainties.

Experiment: xn = mol fraction of the nth substance listed
Details: Liquid, Vibrating tube method

CCCCCCCCCC [decane] + CCCCCC
Details | mass density [kg/m3]
313.08 K, 1000 kPa, x2 = 0.8991 | 654.3 ± 0.27
313.08 K, 2000 kPa, x2 = 0.8991 | 655.28 ± 0.28
313.08 K, 3000 kPa, x2 = 0.8991 | 656.28 ± 0.29
313.08 K, 4000 kPa, x2 = 0.8991 | 657.3 ± 0.3
313.08 K, 5000 kPa, x2 = 0.8991 | 658.33 ± 0.31
313.08 K, 6000 kPa, x2 = 0.8991 | 659.37 ± 0.31
313.08 K, 7000 kPa, x2 = 0.8991 | 660.42 ± 0.32
313.08 K, 8000 kPa, x2 = 0.8991 | 661.47 ± 0.33
313.08 K, 9000 kPa, x2 = 0.8991 | 662.52 ± 0.34
313.08 K, 10000 kPa, x2 = 0.8991 | 663.56 ± 0.35
313.08 K, 11000 kPa, x2 = 0.8991 | 664.61 ± 0.36
313.08 K, 12000 kPa, x2 = 0.8991 | 665.63 ± 0.37
313.08 K, 13000 kPa, x2 = 0.8991 | 666.66 ± 0.38
313.08 K, 14000 kPa, x2 = 0.8991 | 667.66 ± 0.39
313.08 K, 15000 kPa, x2 = 0.8991 | 668.63 ± 0.4
313.08 K, 16000 kPa, x2 = 0.8991 | 669.61 ± 0.41
313.08 K, 17000 kPa, x2 = 0.8991 | 670.54 ± 0.41
313.08 K, 18000 kPa, x2 = 0.8991 | 671.45 ± 0.42
313.08 K, 19000 kPa, x2 = 0.8991 | 672.34 ± 0.43
313.08 K, 20000 kPa, x2 = 0.8991 | 673.21 ± 0.44
313.08 K, 21000 kPa, x2 = 0.8991 | 674.04 ± 0.45
313.08 K, 22000 kPa, x2 = 0.8991 | 674.91 ± 0.46
313.08 K, 23000 kPa, x2 = 0.8991 | 675.69 ± 0.47
313.08 K, 24000 kPa, x2 = 0.8991 | 676.48 ± 0.48
313.08 K, 25000 kPa, x2 = 0.8991 | 677.31 ± 0.49
313.17 K, 1000 kPa, x2 = 0.2185 | 704.92 ± 0.26
313.17 K, 2000 kPa, x2 = 0.2185 | 705.74 ± 0.26
313.17 K, 3000 kPa, x2 = 0.2185 | 706.66 ± 0.27
313.17 K, 4000 kPa, x2 = 0.2185 | 707.53 ± 0.27
313.17 K, 5000 kPa, x2 = 0.2185 | 708.39 ± 0.28
313.17 K, 6000 kPa, x2 = 0.2185 | 709.25 ± 0.29
313.17 K, 7000 kPa, x2 = 0.2185 | 710.11 ± 0.29
313.17 K, 8000 kPa, x2 = 0.2185 | 710.96 ± 0.3
313.17 K, 9000 kPa, x2 = 0.2185 | 711.8 ± 0.31
313.17 K, 10000 kPa, x2 = 0.2185 | 712.63 ± 0.32
313.17 K, 10990 kPa, x2 = 0.2185 | 713.46 ± 0.32
313.17 K, 12000 kPa, x2 = 0.2185 | 714.27 ± 0.33
313.17 K, 13000 kPa, x2 = 0.2185 | 715.05 ± 0.34
313.17 K, 14000 kPa, x2 = 0.2185 | 715.84 ± 0.35
313.17 K, 15000 kPa, x2 = 0.2185 | 716.63 ± 0.35
313.17 K, 16000 kPa, x2 = 0.2185 | 717.4 ± 0.36
313.17 K, 17000 kPa, x2 = 0.2185 | 718.15 ± 0.37
313.17 K, 18000 kPa, x2 = 0.2185 | 718.88 ± 0.38
313.17 K, 19000 kPa, x2 = 0.2185 | 719.62 ± 0.38
313.17 K, 20000 kPa, x2 = 0.2185 | 720.34 ± 0.39
313.17 K, 21000 kPa, x2 = 0.2185 | 721.06 ± 0.4
313.17 K, 22000 kPa, x2 = 0.2185 | 721.76 ± 0.41
313.17 K, 23000 kPa, x2 = 0.2185 | 722.46 ± 0.42
313.17 K, 24000 kPa, x2 = 0.2185 | 723.13 ± 0.42
313.17 K, 25000 kPa, x2 = 0.2185 | 723.78 ± 0.43
313.18 K, 1000 kPa, x2 = 0.0456 | 713.33 ± 0.25
313.18 K, 1000 kPa, x2 = 0.7524 | 668.32 ± 0.27
313.18 K, 2000 kPa, x2 = 0.0456 | 714.22 ± 0.26
313.18 K, 2000 kPa, x2 = 0.7524 | 669.4 ± 0.27
313.18 K, 3000 kPa, x2 = 0.0456 | 715.11 ± 0.26
313.18 K, 3000 kPa, x2 = 0.7524 | 670.46 ± 0.28
313.18 K, 4000 kPa, x2 = 0.0456 | 715.98 ± 0.27
313.18 K, 4000 kPa, x2 = 0.7524 | 671.5 ± 0.29
313.18 K, 5000 kPa, x2 = 0.0456 | 716.84 ± 0.28
313.18 K, 5000 kPa, x2 = 0.7524 | 672.55 ± 0.3
313.18 K, 6000 kPa, x2 = 0.0456 | 717.69 ± 0.28
313.18 K, 6000 kPa, x2 = 0.7524 | 673.61 ± 0.31
313.18 K, 7000 kPa, x2 = 0.0456 | 718.53 ± 0.29
313.18 K, 7000 kPa, x2 = 0.7524 | 674.58 ± 0.31
313.18 K, 8000 kPa, x2 = 0.0456 | 719.34 ± 0.3
313.18 K, 8000 kPa, x2 = 0.7524 | 675.56 ± 0.32
313.18 K, 9000 kPa, x2 = 0.0456 | 720.15 ± 0.3
313.18 K, 9000 kPa, x2 = 0.7524 | 676.55 ± 0.33
313.18 K, 10000 kPa, x2 = 0.0456 | 720.95 ± 0.31
313.18 K, 10000 kPa, x2 = 0.7524 | 677.5 ± 0.34
313.18 K, 10990 kPa, x2 = 0.0456 | 721.74 ± 0.32
313.18 K, 10990 kPa, x2 = 0.7524 | 678.44 ± 0.35
313.18 K, 12000 kPa, x2 = 0.0456 | 722.51 ± 0.32
313.18 K, 12000 kPa, x2 = 0.7524 | 679.36 ± 0.36
313.18 K, 13000 kPa, x2 = 0.0456 | 723.28 ± 0.33
313.18 K, 13000 kPa, x2 = 0.7524 | 680.27 ± 0.37
313.18 K, 14000 kPa, x2 = 0.0456 | 724.03 ± 0.34
313.18 K, 14000 kPa, x2 = 0.7524 | 681.18 ± 0.38
313.18 K, 15000 kPa, x2 = 0.0456 | 724.78 ± 0.35
313.18 K, 15000 kPa, x2 = 0.7524 | 682.08 ± 0.38
313.18 K, 16000 kPa, x2 = 0.0456 | 725.51 ± 0.35
313.18 K, 16000 kPa, x2 = 0.7524 | 682.96 ± 0.39
313.18 K, 17000 kPa, x2 = 0.0456 | 726.24 ± 0.36
313.18 K, 17000 kPa, x2 = 0.7524 | 683.82 ± 0.4
313.18 K, 18000 kPa, x2 = 0.0456 | 726.96 ± 0.37
313.18 K, 18000 kPa, x2 = 0.7524 | 684.65 ± 0.41
313.18 K, 19000 kPa, x2 = 0.0456 | 727.67 ± 0.38
313.18 K, 19000 kPa, x2 = 0.7524 | 685.47 ± 0.42
313.18 K, 20000 kPa, x2 = 0.0456 | 728.36 ± 0.38
313.18 K, 20000 kPa, x2 = 0.7524 | 686.29 ± 0.43
313.18 K, 21000 kPa, x2 = 0.0456 | 729.05 ± 0.39
313.18 K, 21000 kPa, x2 = 0.7524 | 687.07 ± 0.44
313.18 K, 22000 kPa, x2 = 0.0456 | 729.74 ± 0.4
